# Measured values published in ChEMBL document CHEMBL4138123, “Design, synthesis and biological evaluation of novel pyrazolochalcones as potential modulators of PI3K/Akt/mTOR pathway and inducers of apoptosis in breast cancer cells” (Eur J Med Chem, 2017).
# Legend:
# Type in all cases: functional
# NCI/ADR-RES = experiment: Cytotoxicity against human NCI/ADR-RES cells assessed as cell growth at 10 uM after 48 hrs by sulforhodamine B assay relative to control; settings: read-out: Activity
# SK-OV-3 = experiment: Cytotoxicity against human SKOV3 cells assessed as cell growth at 0.01 uM after 48 hrs by sulforhodamine B assay relative to control; settings: SK-OV-3, 48 h, read-out: Activity
# U-251 = experiment: Cytotoxicity against human U251 cells assessed as cell growth at 0.1 uM after 48 hrs by sulforhodamine B assay relative to control; settings: U-251, 48 h, read-out: Activity
# A549 = experiment: Cytotoxicity against human A549/ATCC cells assessed as cell growth at 0.01 uM after 48 hrs by sulforhodamine B assay relative to control; settings: A549, 48 h, read-out: Activity
# HT-29 [1] = experiment: Cytotoxicity against human HT-29 cells assessed as cell growth at 0.1 uM after 48 hrs by sulforhodamine B assay relative to control; settings: HT-29, 48 h, read-out: Activity
# RPMI-8226 [2] = experiment: Cytotoxicity against human RPMI8226 cells assessed as cell growth at 10 uM after 48 hrs by sulforhodamine B assay relative to control; settings: RPMI-8226, 48 h, read-out: Activity
# RPMI-8226 [3] = experiment: Cytotoxicity against human RPMI8226 cells assessed as cell growth at 0.01 uM after 48 hrs by sulforhodamine B assay relative to control; settings: RPMI-8226, 48 h, read-out: Activity
# RXF 393 [4] = experiment: Cytotoxicity against human RXF393 cells assessed as cell growth at 1 uM after 48 hrs by sulforhodamine B assay relative to control; settings: RXF 393, 48 h, read-out: Activity
# SF-539 = experiment: Cytotoxicity against human SF539 cells assessed as cell growth at 0.01 uM after 48 hrs by sulforhodamine B assay relative to control; settings: SF-539, 48 h, read-out: Activity
# Malme-3M = experiment: Cytotoxicity against human MALME-3M cells assessed as cell growth at 0.01 uM after 48 hrs by sulforhodamine B assay relative to control; settings: read-out: Activity
# T47D = experiment: Cytotoxicity against human T47D cells assessed as cell growth at 0.01 uM after 48 hrs by sulforhodamine B assay relative to control; settings: read-out: Activity
# HCT-116 = experiment: Cytotoxicity against human HCT116 cells assessed as cell growth at 1 uM after 48 hrs by sulforhodamine B assay relative to control; settings: HCT-116, 48 h, read-out: Activity
# UACC-62 = experiment: Cytotoxicity against human UACC62 cells assessed as cell growth at 0.01 uM after 48 hrs by sulforhodamine B assay relative to control; settings: UACC-62, 48 h, read-out: Activity
# UACC-257 = experiment: Cytotoxicity against human UACC257 cells assessed as cell growth at 100 uM after 48 hrs by sulforhodamine B assay relative to control; settings: UACC-257, 48 h, read-out: Activity
# MOLT-4 = experiment: Cytotoxicity against human MOLT4 cells assessed as cell growth at 0.1 uM after 48 hrs by sulforhodamine B assay relative to control; settings: MOLT-4, 48 h, read-out: Activity
# ACHN = experiment: Cytotoxicity against human ACHN cells assessed as cell growth at 100 uM after 48 hrs by sulforhodamine B assay relative to control; settings: read-out: Activity
# NCI-H322M [5] = experiment: Cytotoxicity against human NCI-H322M cells assessed as cell growth at 100 uM after 48 hrs by sulforhodamine B assay relative to control; settings: read-out: Activity
# HT-29 [6] = experiment: Cytotoxicity against human HT-29 cells assessed as cell growth at 0.01 uM after 48 hrs by sulforhodamine B assay relative to control; settings: HT-29, 48 h, read-out: Activity
# NCI-H460 = experiment: Cytotoxicity against human NCI-H460 cells assessed as cell growth at 0.01 uM after 48 hrs by sulforhodamine B assay relative to control; settings: NCI-H460, 48 h, read-out: Activity
# MDA-MB-435 = experiment: Cytotoxicity against human MDA-MB-435 cells assessed as cell growth at 0.01 uM after 48 hrs by sulforhodamine B assay relative to control; settings: MDA-MB-435, 48 h, read-out: Activity
# LOX IMVI = experiment: Cytotoxicity against human LOXIMVI cells assessed as growth inhibition after 48 hrs by sulforhodamine B assay
# OVCAR-8 [7] = experiment: Cytotoxicity against human OVCAR8 cells assessed as cell growth at 10 uM after 48 hrs by sulforhodamine B assay relative to control; settings: OVCAR-8, 48 h, read-out: Activity
# NCI-H226 = experiment: Cytotoxicity against human NCI-H226 cells assessed as cell growth at 0.1 uM after 48 hrs by sulforhodamine B assay relative to control; settings: NCI-H226, 48 h, read-out: Activity
# OVCAR-8 [8] = experiment: Cytotoxicity against human OVCAR8 cells assessed as growth inhibition after 48 hrs by sulforhodamine B assay; settings: OVCAR-8, 48 h
# 786-0 = experiment: Cytotoxicity against human 786-0 cells assessed as cell growth at 0.01 uM after 48 hrs by sulforhodamine B assay relative to control; settings: 786-0, 48 h, read-out: Activity
# NCI-H322M [9] = experiment: Cytotoxicity against human NCI-H322M cells assessed as cell growth at 1 uM after 48 hrs by sulforhodamine B assay relative to control; settings: read-out: Activity
# PC-3 = experiment: Cytotoxicity against human PC3 cells assessed as cell growth at 1 uM after 48 hrs by sulforhodamine B assay relative to control; settings: PC-3, 48 h, read-out: Activity
# SK-MEL-2 = experiment: Cytotoxicity against human SK-MEL-2 cells assessed as growth inhibition after 48 hrs by sulforhodamine B assay; settings: SK-MEL-2, 48 h
# HT-29 [10] = experiment: Cytotoxicity against human HT-29 cells assessed as cell growth at 100 uM after 48 hrs by sulforhodamine B assay relative to control; settings: HT-29, 48 h, read-out: Activity
# HT-29 [11] = experiment: Cytotoxicity against human HT-29 cells assessed as growth inhibition after 48 hrs by sulforhodamine B assay; settings: HT-29, 48 h
# SF-268 = experiment: Cytotoxicity against human SF268 cells assessed as cell growth at 100 uM after 48 hrs by sulforhodamine B assay relative to control; settings: SF-268, 48 h, read-out: Activity
# OVCAR-8 [12] = experiment: Cytotoxicity against human OVCAR8 cells assessed as cell growth at 0.1 uM after 48 hrs by sulforhodamine B assay relative to control; settings: OVCAR-8, 48 h, read-out: Activity
# RXF 393 [13] = experiment: Cytotoxicity against human RXF393 cells assessed as cell growth at 0.01 uM after 48 hrs by sulforhodamine B assay relative to control; settings: RXF 393, 48 h, read-out: Activity
# IGROV-1 = experiment: Cytotoxicity against human IGROV1 cells assessed as cell growth at 0.01 uM after 48 hrs by sulforhodamine B assay relative to control; settings: IGROV-1, 48 h, read-out: Activity
# A498 = experiment: Cytotoxicity against human A498 cells assessed as cell growth at 0.01 uM after 48 hrs by sulforhodamine B assay relative to control; settings: A498, 48 h, read-out: Activity
# MCF7 = experiment: Cytotoxicity against human MCF7 cells assessed as cell growth at 10 uM after 48 hrs by sulforhodamine B assay relative to control; settings: MCF7, 48 h, read-out: Activity
smiles,measurement,setting,value
COc1cc(-c2cc(/C=C/C(=O)c3ccc(Cl)c(Cl)c3)[nH]n2)cc(OC)c1OC,growth at 10 µM,NCI/ADR-RES,51%
same,growth at 0.01 µM,SK-OV-3,99%
same,growth at 0.1 µM,U-251,95%
same,growth at 0.01 µM,A549,101%
same,growth at 0.1 µM,HT-29 [1],98%
same,growth at 10 µM,RPMI-8226 [2],-7%
same,growth at 0.01 µM,RPMI-8226 [3],100%
same,growth at 1 µM,RXF 393 [4],81%
same,growth at 0.01 µM,SF-539,93%
same,growth at 0.01 µM,Malme-3M,94%
same,growth at 0.01 µM,T47D,90%
same,growth at 1 µM,HCT-116,80%
same,growth at 0.01 µM,UACC-62,97%
same,growth at 100 µM,UACC-257,-10%
same,growth at 0.1 µM,MOLT-4,102%
same,growth at 100 µM,ACHN,16%
same,growth at 100 µM,NCI-H322M [5],5%
same,growth at 0.01 µM,HT-29 [6],100%
same,growth at 0.01 µM,NCI-H460,105%
same,growth at 0.01 µM,MDA-MB-435,94%
same,LC50,LOX IMVI,78.4 µM
same,TGI,LOX IMVI,16.4 µM
same,growth at 10 µM,OVCAR-8 [7],40%
same,growth at 0.1 µM,NCI-H226,103%
same,LC50,OVCAR-8 [8],> 100 µM
same,TGI,OVCAR-8 [8],34 µM
same,growth at 0.01 µM,786-0,95%
same,growth at 1 µM,NCI-H322M [9],94%
same,growth at 1 µM,PC-3,87%
same,LC50 (concentration killing 50% of cells),SK-MEL-2,83.8 µM
same,TGI,SK-MEL-2,34.1 µM
same,growth at 100 µM,HT-29 [10],3%
same,LC50,HT-29 [11],> 100 µM
same,TGI,HT-29 [11],> 100 µM
same,growth at 100 µM,SF-268,-15%
same,growth at 0.1 µM,OVCAR-8 [12],97%
same,growth at 0.01 µM,RXF 393 [13],96%
same,growth at 0.01 µM,IGROV-1,97%
same,growth at 0.01 µM,A498,84%
same,growth at 10 µM,MCF7,15%
COc1cc(-c2cc(/C=C/C(=O)c3ccc(N)cc3)[nH]n2)cc(OC)c1OC,growth at 10 µM,NCI/ADR-RES,15%
same,growth at 0.01 µM,SK-OV-3,82%
same,growth at 0.1 µM,U-251,94%
same,growth at 0.01 µM,A549,96%
same,growth at 0.1 µM,HT-29 [1],102%
same,growth at 10 µM,RPMI-8226 [2],-35%
same,growth at 0.01 µM,RPMI-8226 [3],98%
same,growth at 1 µM,RXF 393 [4],67%
same,growth at 0.01 µM,SF-539,92%
same,growth at 0.01 µM,Malme-3M,98%
same,growth at 0.01 µM,T47D,83%
same,growth at 1 µM,HCT-116,56%
same,growth at 0.01 µM,UACC-62,99%
same,growth at 100 µM,UACC-257,-93%
same,growth at 0.1 µM,MOLT-4,102%
same,growth at 100 µM,ACHN,-63%
same,growth at 100 µM,NCI-H322M [5],-89%
same,growth at 0.01 µM,HT-29 [6],98%
same,growth at 0.01 µM,NCI-H460,102%
same,growth at 0.01 µM,MDA-MB-435,90%
same,GI50,LOX IMVI,1.06 µM
same,LC50,LOX IMVI,6.72 µM
same,TGI,LOX IMVI,3.28 µM
same,growth at 10 µM,OVCAR-8 [7],-1%
same,growth at 0.1 µM,NCI-H226,98%
same,GI50,OVCAR-8 [8],2.39 µM
same,LC50,OVCAR-8 [8],34.9 µM
same,TGI,OVCAR-8 [8],9.76 µM
same,growth at 0.01 µM,786-0,92%
same,growth at 1 µM,NCI-H322M [9],94%
same,growth at 1 µM,PC-3,76%
same,GI50,SK-MEL-2,2.85 µM
same,LC50 (concentration killing 50% of cells),SK-MEL-2,31.9 µM
same,TGI,SK-MEL-2,7.53 µM
same,growth at 100 µM,HT-29 [10],-49%
same,GI50,HT-29 [11],1.85 µM
same,LC50,HT-29 [11],> 100 µM
same,TGI,HT-29 [11],4.82 µM
same,growth at 100 µM,SF-268,-80%
same,growth at 0.1 µM,OVCAR-8 [12],98%
same,growth at 0.01 µM,RXF 393 [13],91%
same,growth at 0.01 µM,IGROV-1,107%
same,growth at 0.01 µM,A498,91%
same,growth at 10 µM,MCF7,-24%
COc1cc(C(=O)/C=C/c2cc(-c3cc(OC)c(OC)c(OC)c3)n[nH]2)cc(OC)c1OC,growth at 10 µM,NCI/ADR-RES,12%
same,growth at 0.01 µM,SK-OV-3,100%
same,growth at 0.1 µM,U-251,94%
same,growth at 0.01 µM,A549,97%
same,growth at 0.1 µM,HT-29 [1],102%
same,growth at 10 µM,RPMI-8226 [2],-38%
same,growth at 0.01 µM,RPMI-8226 [3],97%
same,growth at 1 µM,RXF 393 [4],65%
same,growth at 0.01 µM,SF-539,92%
same,growth at 0.01 µM,Malme-3M,100%
same,growth at 0.01 µM,T47D,91%
same,growth at 1 µM,HCT-116,70%
same,growth at 0.01 µM,UACC-62,97%
same,growth at 100 µM,UACC-257,-99%
same,growth at 0.1 µM,MOLT-4,112%
same,growth at 100 µM,ACHN,-98%
same,growth at 100 µM,NCI-H322M [5],-99%
same,growth at 0.01 µM,HT-29 [6],95%
same,growth at 0.01 µM,NCI-H460,102%
same,growth at 0.01 µM,MDA-MB-435,99%
same,LC50,LOX IMVI,5.57 µM
same,TGI,LOX IMVI,2.91 µM
same,growth at 10 µM,OVCAR-8 [7],-76%
same,growth at 0.1 µM,NCI-H226,93%
same,LC50,OVCAR-8 [8],6.81 µM
same,TGI,OVCAR-8 [8],3.28 µM
same,growth at 0.01 µM,786-0,101%
same,growth at 1 µM,NCI-H322M [9],89%
same,growth at 1 µM,PC-3,74%
same,LC50 (concentration killing 50% of cells),SK-MEL-2,8.32 µM
same,TGI,SK-MEL-2,4.04 µM
same,growth at 100 µM,HT-29 [10],-58%
same,LC50,HT-29 [11],6.36 µM
same,TGI,HT-29 [11],3.37 µM
same,growth at 100 µM,SF-268,-75%
same,growth at 0.1 µM,OVCAR-8 [12],94%
same,growth at 0.01 µM,RXF 393 [13],93%
same,growth at 0.01 µM,IGROV-1,104%
same,growth at 0.01 µM,A498,95%
same,growth at 10 µM,MCF7,-85%
